The values below come from US7189760B2, “Physiological cooling compositions containing highly purified ethyl ester of N-[[5-methyl-2-(1-methylethyl) cyclohexyl] carbonyl]glycine” (Millennium Specialty Chemicals, priority 2004, dated 2007).

The nature of series [1]: visual and organoleptic test of aqueous solution of the product. The format is in vivo. The following applies: 25 ppm aqueous solution. An excerpt: (§1) Further, the aqueous solutions of products for organoleptic tests were obtained by dissolving appropriate amounts of the products in dipropylene glycol DPG and adding the solution in DPG to an appropriate amount of water.
The conditions of series [2]: lower threshold = stronger coolant; data of U.S. Pat. Nos. 4,060,091 etc.; cited from earlier work.
The nature of series [3]: sensitivity threshold (cooling strength) of N-monosubstituted p-menthane-3-carboxamides, prior-art patents. The format is in vivo. The following applies: from patent thresholds 0.2 vs 0.3 μg. The source says: With specific reference to structure 6, substituent “X” is commonly selected from the lower linear or branched alkyl substituents, functionally substituted alkyl substituents, or aryl substituents. To that end, U.S. Pat. Nos. 4,060,091; 4,136,163; 4,150,052; 4,178,459; 4,193,936; and 4,226,988, the entire disclosures of which are hereby incorporated by reference for all purposes, give a comparison of cooling strengths of certain N-monosubstituted p-menthane-3-carboxamides numerically expressed as sensitivity thresholds in μg, wherein a lower threshold value correlates to a stronger coolant effect. Of the compared compounds, the only commercially used N-monosubstituted p-menthane-3-carboxamide compound is the WS-3 coolant, having a sensitivity threshold of 0.3 μg.

The nature of the next series: volatility. Type of series: physicochemical. The following applies: compared with menthol.
The conditions of series [4]: cited from earlier work; for sensitivity threshold (corrected data): J. Soc. Cosmet. Chem., 1978, vol. 29, pp. 185–200.
The nature of series [5]: comparison of cooling strength to WS-3 in oral application. The following applies: for cooling strength relative to WS-3 (times stronger): aqueous solutions, vs 10 ppm WS-3. Type of series: in vivo. As to the method: as §1
A comparison basis aqueous solution of WS-3 (compound 5) was prepared containing 10 ppm concentration of WS-3.
Aqueous solutions were prepared containing various concentrations of the purified compound 10: 2 ppm, 3 ppm, 4 ppm, 5 ppm, and higher. These solutions were tested in oral application in comparison to the basis solution of 10 ppm of WS-3.
Aqueous solutions were prepared containing various concentrations of the purified compound 10: 2 ppm, 3 ppm, 3.5 ppm, 4 ppm, 5 ppm, and higher. These solutions were tested in oral application in comparison to the basis solution of 10 ppm of WS-3.

Regarding `CCOC(=O)CNC(=O)C1CC(C)CCC1C(C)C` (stereo not drawn) [Inventive Example 4, ethyl ester of N-[[5-methyl-2-(1-methylethyl)cyclohexyl]carbonyl]glycine], in series [1], the tingling/cooling sensation entry is listed as “very strong tingling/cooling sensation”. Consider `Cc1ccc(NC(=O)C2CC(C)CCC2C(C)C)cc1O` (stereo not drawn) [compound 8], for which, in series [2], the sensitivity threshold was 0.1 µg. Turning to `CCOC(=O)CNC(=O)C1CC(C)CCC1C(C)C` (stereo not drawn) [compound 10, ethyl ester of N-[[5-methyl-2-(1-methylethyl)cyclohexyl]carbonyl]glycine], the “cooling strength relative to WS-3 (times stronger)” value in series [3] amounted to 1.5 times. Also, the volatility result in the series “volatility” is on record as “much lower volatility than menthol”. The sensitivity threshold in series [2] was 0.2 µg. Besides, the “sensitivity threshold (corrected data)” value in series [4] is 0.13 µg. Also, the “cooling strength relative to compound 5 (times stronger)” value in series [4] (from corrected thresholds 0.13 vs 0.2 μg) is “approximately 1.5 times”. As to `CCOC(=O)CNC(=O)C1CC(C)CCC1C(C)C` (stereo not drawn) [Inventive Example 1, ethyl ester of N-[[5-methyl-2-(1-methylethyl)cyclohexyl]carbonyl]glycine], the tingling/cooling sensation entry in series [1] is “very strong tingling/cooling sensation”. The “cooling effect compared to basis solution of 10 ppm WS-3” value is “approximately equal cooling effect” in series [5] (4 ppm aqueous solution); “stronger and longer lasting cooling effect” in series [5] (5 ppm aqueous solution). The “cooling strength relative to WS-3 (times stronger)” value in series [5] is “approximately 2.5 times”. In the case of `CCOC(=O)CNC(=O)C1CC(C)CCC1C(C)C` (stereo not drawn) [Inventive Example 5, ethyl ester of N-[[5-methyl-2-(1-methylethyl)cyclohexyl]carbonyl]glycine], the tingling/cooling sensation entry in series [1] is “very strong tingling/cooling sensation”. Still for that read-out and setting: next, `CCOC(=O)CNC(=O)C1CC(C)CCC1C(C)C` (stereo not drawn) [Inventive Example 3 (A), ethyl ester of N-[[5-methyl-2-(1-methylethyl)cyclohexyl]carbonyl]glycine]: “very strong tingling/cooling sensation”; `CCOC(=O)CNC(=O)C1CC(C)CCC1C(C)C` (stereo not drawn) [Inventive Example 2, ethyl ester of N-[[5-methyl-2-(1-methylethyl)cyclohexyl]carbonyl]glycine]: “very strong tingling/cooling sensation”. The same measure, in the same setting: then `CCOC(=O)CNC(=O)C1CC(C)CCC1C(C)C` (stereo not drawn) [Comparative Synthetic and Organoleptic Example 2 after the a] [ethyl ester of N-[[5-methyl-2-(1-methylethyl)cyclohexyl]carbonyl]glycine, reference compound], with “strong tingling/cooling sensation”; and `CCOC(=O)CNC(=O)C1CC(C)CCC1C(C)C` (stereo not drawn) [Comparative Synthetic and Organoleptic Example 2] [ethyl ester of N-[[5-methyl-2-(1-methylethyl)cyclohexyl]carbonyl]glycine, reference compound], with “strong tingling/cooling sensation”. Still for that read-out and setting: next, `CCOC(=O)CNC(=O)C1CC(C)CCC1C(C)C` (stereo not drawn) [Comparative Synthetic and Organoleptic Example 1] [ethyl ester of N-[[5-methyl-2-(1-methylethyl)cyclohexyl]carbonyl]glycine, reference compound]: “noticeable tingling/cooling sensation”. In the case of `CCOC(=O)CNC(=O)C1CC(C)CCC1C(C)C` (stereo not drawn) [Inventive Example 3, ethyl ester of N-[[5-methyl-2-(1-methylethyl)cyclohexyl]carbonyl]glycine], the tingling/cooling sensation result in series [1] (listed as Inventive Example 3 (B)) was “extremely strong and pleasant tingling/cooling sensation”. Moreover, the “cooling effect compared to basis solution of 10 ppm WS-3” value is “approximately equal cooling effect” in series [5] (3.5 ppm aqueous solution); “stronger and longer lasting cooling effect” in series [5] (4 ppm aqueous solution). Moreover, the “cooling strength relative to WS-3 (times stronger)” value in series [5] is reported as “approximately 3 times”.

Take `CCNC(=O)C1C[C@H](C)CCC1C(C)C` (stereo in doubt) [WS-3, N-ethyl-p-menthane-3-carboxamide, reference compound]: in series [2], the sensitivity threshold was 0.3 µg. Moreover, in series [4], the “sensitivity threshold (corrected data)” value is 0.2 µg. With `Cc1ccc(NC(=O)C2CC(C)CCC2C(C)C)cc1C` (stereo not drawn) [compound 7], the sensitivity threshold in series [2] is 0.1 µg.
